Laboratory results taken from patent publication US12534465B2, “5H-pyrrolo[3,2-d]pyrimidine-2,4-diamino compounds and antibody conjugates thereof” (SUTRO BIOPHARMA, INC., priority 2019, dated 2026).

Assays:
Assay type in all cases: cell-based
human TLR7 = molecular target: T1, human TLR7 (Homo sapiens, UniProt Q9NYK1); assay: HEK293-humanTLR7 SEAP reporter assay (Example 8); details: HEK293-hTLR7 SEAP reporter cells, 24 hrs
T1 construct: host or cells: HEK293
T1 sequence (Q9NYK1 27-1049): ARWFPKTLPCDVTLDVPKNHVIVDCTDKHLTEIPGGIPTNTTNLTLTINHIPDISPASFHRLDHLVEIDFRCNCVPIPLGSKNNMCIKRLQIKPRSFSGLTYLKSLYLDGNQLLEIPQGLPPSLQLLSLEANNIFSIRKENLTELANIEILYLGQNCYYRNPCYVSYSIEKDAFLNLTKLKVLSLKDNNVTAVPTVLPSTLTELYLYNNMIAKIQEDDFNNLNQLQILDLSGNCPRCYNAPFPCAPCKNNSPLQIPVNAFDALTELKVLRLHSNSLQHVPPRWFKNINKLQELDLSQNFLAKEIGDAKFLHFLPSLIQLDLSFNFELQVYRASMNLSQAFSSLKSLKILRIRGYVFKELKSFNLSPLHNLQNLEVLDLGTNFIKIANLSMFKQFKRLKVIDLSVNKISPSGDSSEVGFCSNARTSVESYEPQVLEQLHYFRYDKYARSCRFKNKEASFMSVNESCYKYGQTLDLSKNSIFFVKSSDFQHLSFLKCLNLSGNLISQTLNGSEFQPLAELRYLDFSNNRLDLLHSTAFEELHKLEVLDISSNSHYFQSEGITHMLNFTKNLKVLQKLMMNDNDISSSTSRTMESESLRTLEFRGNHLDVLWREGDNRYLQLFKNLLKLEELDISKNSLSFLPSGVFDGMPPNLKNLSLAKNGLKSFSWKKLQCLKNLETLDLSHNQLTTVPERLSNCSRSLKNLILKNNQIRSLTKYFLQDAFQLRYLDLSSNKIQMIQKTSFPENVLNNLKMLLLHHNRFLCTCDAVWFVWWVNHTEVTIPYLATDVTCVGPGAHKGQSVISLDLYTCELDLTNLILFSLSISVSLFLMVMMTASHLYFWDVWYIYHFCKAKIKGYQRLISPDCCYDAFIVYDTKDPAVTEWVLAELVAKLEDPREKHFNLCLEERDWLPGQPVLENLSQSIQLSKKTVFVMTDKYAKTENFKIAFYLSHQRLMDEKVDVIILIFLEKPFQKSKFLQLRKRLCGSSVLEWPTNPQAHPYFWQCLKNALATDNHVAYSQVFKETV
Experimental: (§1) In this example, the in vitro activity of compounds to activate human TLR7 (or human TLR8 or mouse TLR7) pathway was evaluated on HEK293 reporter cells transfected with human TLR7 (or human TLR8 or mouse TLR7) and an inducible SEAP (secreted embryonic alkaline phosphatase) reporter gene. The SEAP reporter gene is placed under the control of the IFN-β minimal promoter fused to five NF-κB and AP-1-binding sites. Stimulation with a TLR7 agonist activates NF-κB and AP-1 which induces the production of SEAP. Levels of SEAP were determined by HEK-Blue Detection medium.
(§2) The in vitro activity of compounds on TLR7 (human and mouse) and TLR8 (human only) reporter cell lines was assessed as follows. 5-(2-methoxy-4-(piperazin-1-ylmethyl)benzyl)-N4-pentyl-5H-pyrrolo[3,2-d]pyrimidine-2,4-diamine (Compound 1) is a compound used for comparison and has the structure shown below:
(§3) HEK293-humanTLR7 (hTLR7), HEK293-mouseTLR7 (mTLR7) and HEK293-humanTLR8 (hTLR8) reporter cell lines were purchased from Invivogen and cell lines were maintained in the manufacturer's recommended culture medium with required supplemental antibiotics. On the day of assay, the cells were harvested with Accutase and counted by the Vi-CELL Cell Viability Analyzers. Cells were resuspended in HEK blue detection medium and a total of 10,000 cells were seeded in each well of a 384-well flat bottom plate. Serial dilutions of test compounds (1:4 serial dilution starting from 5 μM) were added into treatment wells and assay plates were cultured at 37° C. in a CO2 incubator for 24 hrs. The plates were then read by spectrophotometry at 640 nm. Data was fitted with non-linear regression analysis, using a log(inhibitor) vs. response-variable slope, 3-parameter fit with GraphPad Prism. There result was reported in Table 1 as EC50 (the midpoint of the curve, or concentration at which 50% of the maximum effect was observed).

human TLR8 = molecular target: T2, human TLR8 (Homo sapiens, UniProt Q9NR97); assay: HEK293-humanTLR8 SEAP reporter assay (Example 8); details: HEK293-hTLR8 SEAP reporter cells, 24 hrs
T2 construct: host or cells: HEK293
T2 sequence (Q9NR97 27-1041): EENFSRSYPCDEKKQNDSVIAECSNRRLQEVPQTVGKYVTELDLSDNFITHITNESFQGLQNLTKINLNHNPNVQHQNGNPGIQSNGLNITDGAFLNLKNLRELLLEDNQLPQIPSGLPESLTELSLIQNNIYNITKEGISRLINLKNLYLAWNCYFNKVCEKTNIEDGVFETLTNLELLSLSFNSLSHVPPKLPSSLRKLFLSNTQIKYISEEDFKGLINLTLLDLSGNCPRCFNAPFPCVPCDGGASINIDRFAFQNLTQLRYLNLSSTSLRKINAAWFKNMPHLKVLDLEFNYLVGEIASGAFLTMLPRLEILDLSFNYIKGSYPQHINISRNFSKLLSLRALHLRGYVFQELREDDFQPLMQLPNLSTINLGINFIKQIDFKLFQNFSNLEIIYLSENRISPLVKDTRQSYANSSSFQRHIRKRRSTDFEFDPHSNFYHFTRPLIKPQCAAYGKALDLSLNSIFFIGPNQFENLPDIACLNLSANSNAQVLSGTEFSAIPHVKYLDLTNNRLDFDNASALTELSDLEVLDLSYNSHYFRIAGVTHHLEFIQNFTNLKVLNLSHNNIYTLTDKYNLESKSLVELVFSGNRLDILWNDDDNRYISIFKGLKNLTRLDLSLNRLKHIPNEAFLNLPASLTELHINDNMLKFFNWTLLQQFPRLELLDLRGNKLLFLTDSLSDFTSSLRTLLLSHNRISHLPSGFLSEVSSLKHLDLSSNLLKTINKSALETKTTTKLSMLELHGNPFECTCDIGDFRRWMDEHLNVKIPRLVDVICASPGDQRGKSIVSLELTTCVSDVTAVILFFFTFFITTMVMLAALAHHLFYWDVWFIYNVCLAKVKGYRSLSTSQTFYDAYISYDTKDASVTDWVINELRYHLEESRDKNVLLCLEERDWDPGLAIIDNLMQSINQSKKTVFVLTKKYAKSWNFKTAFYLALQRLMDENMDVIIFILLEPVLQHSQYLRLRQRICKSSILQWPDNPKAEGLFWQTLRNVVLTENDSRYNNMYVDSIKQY
Experimental: as §1, §2, §3

mouse TLR7 = molecular target: T3, mouse TLR7 (Mus musculus, UniProt P58681); assay: HEK293-mouseTLR7 SEAP reporter assay (Example 8); details: HEK293-mTLR7 SEAP reporter cells, 24 hrs
T3 construct: host or cells: HEK293
T3 sequence (P58681 27-1050): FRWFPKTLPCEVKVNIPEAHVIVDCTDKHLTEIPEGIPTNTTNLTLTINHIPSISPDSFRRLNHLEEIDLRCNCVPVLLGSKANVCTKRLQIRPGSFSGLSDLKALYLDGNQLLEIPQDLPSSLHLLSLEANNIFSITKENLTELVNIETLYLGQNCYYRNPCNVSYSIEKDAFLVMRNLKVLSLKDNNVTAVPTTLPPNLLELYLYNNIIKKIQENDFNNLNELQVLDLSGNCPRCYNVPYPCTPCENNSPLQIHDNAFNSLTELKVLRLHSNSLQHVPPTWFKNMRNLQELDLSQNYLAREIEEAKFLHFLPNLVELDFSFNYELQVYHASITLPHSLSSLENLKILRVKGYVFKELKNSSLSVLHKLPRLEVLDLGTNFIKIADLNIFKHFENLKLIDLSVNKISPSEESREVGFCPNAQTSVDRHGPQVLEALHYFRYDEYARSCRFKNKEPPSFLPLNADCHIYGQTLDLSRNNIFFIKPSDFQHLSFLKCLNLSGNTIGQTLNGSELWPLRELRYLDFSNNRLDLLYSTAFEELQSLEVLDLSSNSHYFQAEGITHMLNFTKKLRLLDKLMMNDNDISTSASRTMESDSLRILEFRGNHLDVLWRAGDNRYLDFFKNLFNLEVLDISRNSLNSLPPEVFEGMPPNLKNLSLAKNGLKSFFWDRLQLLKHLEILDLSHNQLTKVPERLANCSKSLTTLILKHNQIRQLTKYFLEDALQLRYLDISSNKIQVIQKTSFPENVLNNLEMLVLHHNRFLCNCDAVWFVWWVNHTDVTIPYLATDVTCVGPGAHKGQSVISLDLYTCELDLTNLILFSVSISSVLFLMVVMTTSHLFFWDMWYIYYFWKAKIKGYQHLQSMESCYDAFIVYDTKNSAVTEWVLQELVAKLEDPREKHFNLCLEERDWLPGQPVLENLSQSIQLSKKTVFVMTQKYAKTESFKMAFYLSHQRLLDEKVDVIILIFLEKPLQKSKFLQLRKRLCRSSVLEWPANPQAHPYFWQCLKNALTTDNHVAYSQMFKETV
Experimental: as §1, §2, §3

EC50 (human TLR7) [nM] | EC50 (human TLR8) [nM] | EC50 (mouse TLR7) [nM] | Structure (SMILES)
0.1 | > 5000 | 6.7 | CCCCCNc1nc(N)nc2ccn(Cc3ccc(CN4CC5(C4)CN(C(=O)OC(C)(C)C)CCO5)cc3OC)c12 [Compound 1.7, tert-butyl 2-[[4-[[2-amino-4-(pentylamino)pyrrolo[3,2-d]pyrimidin-5-yl]methyl]-3-methoxy-phenyl]methyl]-5-oxa-2,8-diazaspiro[3.5]nonane-8-carboxylate]
1010 | > 5000 |  | CNC1CN(Cc2ccc(Cn3ccc4nc(N)nc(NCc5nocc5C)c43)c(OC)c2)C1 [Compound 5]
> 5000 | > 5000 | > 5000 | CNC1CN(Cc2ccc(Cn3ccc4nc(N)nc(NCc5cc(C)on5)c43)c(OC)c2)C1 [Compound 6, 5-(2-methoxy-4-((3-(methylamino)azetidin-1-yl)methyl)benzyl)-N4-((5-methylisoxazol-3-yl)methyl)-5H-pyrrolo[3,2-d]pyrimidine-2,4-diamine]
0.5 | 374 | 2.7 | CCCCCNc1nc(N)nc2ccn(Cc3ccc(CN4CC(N)C4)cc3OC)c12 [Compound 13, 5-(4-((3-aminoazetidin-1-yl)methyl)-2-methoxybenzyl)-N4-pentyl-5H-pyrrolo[3,2-d]pyrimidine-2,4-diamine]
48.8 | > 5000 | 112 | CCCCCNc1nc(N)nc2ccn(Cc3ccc(CN4CCC5(CCNCC5)CC4)cc3OC)c12 [compound 7]
16.5 | > 5000 | 17.6 | CCCCCNc1nc(N)nc2ccn(Cc3ccc(CN4CC5(CCNCC5)C4)cc3OC)c12 [compound 8]
13.4 | 1140 | 16.2 | CCCCCNc1nc(N)nc2ccn(Cc3ccc(CN4CC5(CNC5)C4)cc3OC)c12 [compound 9]
92.3 | > 5000 | 222 | CCCCCNc1nc(N)nc2ccn(Cc3ccc(CN4CC(C5CCNCC5)C4)cc3OC)c12 [compound 11]
370 | > 5000 |  | CCCCCNc1nc(N)nc2ccn(Cc3ccc(CN4CCC(c5nnc6n5CCNC6)CC4)cc3OC)c12 [compound 12]
108 | > 5000 | 322 | CCCCCNc1nc(N)nc2ccn(Cc3ccc(CN4CC5CCCC(C4)NC5)cc3OC)c12 (stereo not shown) [compound 14]
4.8 | > 5000 | 24.6 | CCCCCNc1nc(N)nc2ccn(Cc3ccc(CN4CC5CCC4CN5)cc3OC)c12 (stereo not shown) [compound 15]
